# Measurements reported in US20220226321A1, “INHIBITOR OF MNK FOR THE TREATMENT OF NEUROPATHIC PAIN” (Board of Regents, The University of Texas System, priority 2019, published 2022).
# How the values were obtained:
# [1] = tested on: mice; test: open field; format: in vivo, mouse; settings: 10 mg/kg i.p., 1 hour; vehicle had the same effect
# Description: Open field. […] Movement in the maze was video recorded for 10 minutes via ceiling-mounted cameras and tracked using a custom script in MATLAB-2015b. The script outputs total distance traveled and path tracking.
# [2] = tested on: eIF4E phosphorylation at serine 209; settings: in vitro, tumor cell lines; read-out: IC50, reduction of eIF4E phosphorylation at serine 209; cited from earlier work
# [3] = tested on: SNI mice; test: mechanical withdrawal threshold (von Frey) after SNI; format: in vivo, mouse; settings: 1 or 3 hours after treatment on days 1 and 5 of 7-day schedule, 10 mg/kg p.o.
# Description: Surgery. Spared nerve injury (SNI) was performed by the ligation and cutting of the tibial and peroneal branches of the left sciatic nerve trifurcation, leaving the sural branch intact as previously described (Decosterd and Woolf, 2000). Sham surgeries were performed the same way but without cutting the nerve. Mice were allowed to recover for 2 weeks following surgery.
# Mechanical withdrawal threshold. Tactile sensitivity was measured by probing the left outer surface of the left hindpaw with a series of calibrated von Frey filaments. Mechanical withdrawal thresholds were assessed in all animals before (baseline) and after (2 weeks) surgery to confirm neuropathy. Withdrawal thresholds were calculated using the up-down method (Chaplan et al., 1994).
compound,measurement,setting,value
"Cc1cc(Nc2cc(N)ncn2)c(=O)n2c1C(=O)NC21CCCCC1 [eFT508, Tomivosertib]",movement speed in the open field vs naïve mice,[1],moved significantly slower
same,IC50,[2],2 to 16 nM
same,mechanical withdrawal thresholds,[3],had no effect
